Read-outs that look alike come from different tables or passages of the source.
Tests used:
[1] = tested on: C57BL/6 mice; assay: THC drug discrimination in mice; format: in vivo, mouse; conditions: for Effect on response rates compared to vehicle: alone or in combination with 3 mg/kg pFPP, either sex; for AMB-FUBINACA ED50 (95% confidence limits), + Saline: with saline
[2] = tested on: myc-h5HT1a and 3HA-hCB1; format: cell-based, human; conditions: 5HT1a/CB1 cell line
[3] = biological target: 3HA-hCB1 (Homo sapiens, UniProt P21554); assay: CAMYEL BRET cAMP signalling assay, HEK cells expressing CB1 alone; format: cell-based; conditions: for Emax (% inhib of Fsk), ± SEM / pEC50 ± SEM: CB1 cell line; for cAMP response in the cell line expressing only CB1: CB1-alone HEK line, 5 μM forskolin
[4] = tested on: Long Evans rats; assay: Plethysmography and telemetry in rats
[5] = biological target: T1, myc-h5HT1a and 3HA-hCB1 (Homo sapiens, UniProt P08908); format: cell-based; conditions: 5HT1a/CB1 cell line, in the presence of 31.6 nM 8OH-DPAT
T1 sequence (P08908 1-422): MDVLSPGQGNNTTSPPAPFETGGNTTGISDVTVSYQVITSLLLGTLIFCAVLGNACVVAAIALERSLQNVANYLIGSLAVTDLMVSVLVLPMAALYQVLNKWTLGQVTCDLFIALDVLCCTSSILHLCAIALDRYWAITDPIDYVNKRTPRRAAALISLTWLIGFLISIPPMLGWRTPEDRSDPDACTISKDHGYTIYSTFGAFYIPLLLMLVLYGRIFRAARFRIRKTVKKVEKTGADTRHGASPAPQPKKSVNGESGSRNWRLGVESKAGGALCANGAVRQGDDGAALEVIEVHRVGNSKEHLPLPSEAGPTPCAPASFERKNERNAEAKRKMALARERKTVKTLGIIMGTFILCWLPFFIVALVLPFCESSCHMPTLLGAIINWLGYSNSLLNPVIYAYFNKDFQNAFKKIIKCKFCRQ

[6] = biological target: T2, myc-h5HT1a (Homo sapiens, UniProt P08908); assay: CAMYEL BRET cAMP signalling assay, HEK cells expressing 5HT1a alone; format: cell-based; conditions: 5HT1a-alone cell line, in the presence of 31.6 nM 8OH-DPAT
T2 sequence (P08908 1-422): T1 sequence (P08908 1-422)

[7] = AMB-FUBINACA metabolism in rat liver microsomes; format: in vitro ADME; conditions: pFPP 0.59, 1.18, 2.36 μg/ml
[8] = AMB-FUBINACA metabolism in human liver microsomes; format: in vitro ADME; conditions: pFPP 0.59, 1.18, 2.36 μg/ml
[9] = biological target: 5HT1a; conditions: ref Scherman et al., 1988; cited from earlier work
[10] = inhibition of 5 μM forskolin-induced cAMP, drug alone

Sequence of 3HA-hCB1 (P21554 whole entry): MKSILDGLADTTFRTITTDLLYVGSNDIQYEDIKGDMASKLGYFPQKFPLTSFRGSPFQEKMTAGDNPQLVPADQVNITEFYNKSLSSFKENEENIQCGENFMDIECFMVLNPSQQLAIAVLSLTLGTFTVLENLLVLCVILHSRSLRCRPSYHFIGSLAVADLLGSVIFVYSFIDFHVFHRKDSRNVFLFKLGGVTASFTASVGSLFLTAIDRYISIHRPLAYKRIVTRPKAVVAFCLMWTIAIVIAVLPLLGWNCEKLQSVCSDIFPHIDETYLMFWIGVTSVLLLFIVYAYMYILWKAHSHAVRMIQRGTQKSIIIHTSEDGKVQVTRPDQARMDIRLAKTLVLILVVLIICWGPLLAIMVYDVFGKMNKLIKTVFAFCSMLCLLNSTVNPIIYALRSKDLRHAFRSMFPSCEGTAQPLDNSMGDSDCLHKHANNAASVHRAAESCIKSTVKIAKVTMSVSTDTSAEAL

Structure (SMILES): COC(=O)[C@@H](NC(=O)c1nn(Cc2ccc(F)cc2)c2ccccc12)C(C)C [AMB-FUBINACA]
- Effect on response rates compared to vehicle [1]: neither cannabinoid (alone or in combination with pFPP) significantly affected response rates
- Potency relative to THC in drug discrimination ([1]; both sexes, more potent than THC): 49-70 fold
- AMB-FUBINACA ED50 (95% confidence limits), + Saline ([1]; female mice, i.p.): 0.03 mg/kg (0.006-0.14)
- AMB-FUBINACA ED50 (95% confidence limits), + Saline ([1]; male mice, i.p.): 0.03 mg/kg (0.007-0.14)
- Emax (% inhib of Fsk), ± SEM ([2]; + WAY100635 (1 μM)): 59.4 ± 9.17 % inhib of Fsk
- pEC50 ± SEM ([2]; + WAY100635 (1 μM)): 9.11 ± 0.16
- Emax (% inhib of Fsk), ± SEM ([2]; + pFPP (31.6 μM)): 64.9 ± 3.5 % inhib of Fsk
- pEC50 ± SEM ([2]; + pFPP (31.6 μM)): 9.39 ± 0.11
- Emax (% inhib of Fsk), ± SEM ([2]; drug alone): 61.0 ± 1.7 % inhib of Fsk
- pEC50 ± SEM [2, 10]: 9.21 ± 0.14
- Emax (% inhib of Fsk), ± SEM ([3]; + WAY100635 (1 μM)): 55.7 ± 5.78 % inhib of Fsk
- pEC50 ± SEM ([3]; + WAY100635 (1 μM)): 9.65 ± 0.14
- Emax (% inhib of Fsk), ± SEM ([3]; + pFPP (31.6 μM)): 57.9 ± 2.33 % inhib of Fsk
- pEC50 ± SEM ([3]; + pFPP (31.6 μM)): 9.70 ± 0.16
- Emax (% inhib of Fsk), ± SEM ([3]; drug alone): 60.8 ± 1.7 % inhib of Fsk
- pEC50 ± SEM [3, 10]: 9.56 ± 0.09
- Duration of decreases in heart rate ([4]; 0.3 mg/kg AMB-FUBINACA alone): approximately half of the post-injection session
- Effect on respiratory minute volume ([4]; 0.3 mg/kg AMB-FUBINACA alone, early in the session): transient decrease
- Time until which significant hypothermia continued ([4]; 0.3 mg/kg AMB-FUBINACA combined with 10 mg/kg pFPP): 165 min
- Time after injection by which hypothermic effect dissipated ([4]; 0.3 mg/kg AMB-FUBINACA i.p. alone): ≤ 135 min
- Duration of significant decreases in heart rate ([4]; 1 mg/kg AMB-FUBINACA alone): during most of the post-injection session
- Effect on respiratory minute volume ([4]; 1 mg/kg AMB-FUBINACA alone and with 10 mg/kg pFPP, part or all of the post-injection session): significantly decreased minute volume
- Duration of significant hypothermia ([4]; 1 mg/kg AMB-FUBINACA combined with 10 mg/kg pFPP): throughout the session
- Duration of hypothermic effect ([4]; 1 mg/kg AMB-FUBINACA i.p. alone): endured for the entire 240-min post-injection measurement period
- Effect on temperature ([4]; 0.03 and 0.1 mg/kg AMB-FUBINACA i.p.): no significant effect
- Onset of significant hypothermic effect post-injection ([4]; 0.3 and 1 mg/kg AMB-FUBINACA combined with 10 mg/kg pFPP, vs pFPP alone): 75 min
- Effect on temperature vs vehicle/saline ([4]; 0.3 and 1 mg/kg AMB-FUBINACA i.p. alone, one or more post-injection time points): produced hypothermia
- Effect on heart rate ([4]; 0.3 and 1 mg/kg AMB-FUBINACA i.p., alone or with 10 mg/kg pFPP): decreased heart rate

Structure (SMILES): CCCN(CCC)C1CCc2cccc(O)c2C1 (centres unmarked) [8OH-DPAT, 8-hydroxy DPAT]
- Emax (% inhib of Fsk), ± SEM ([2]; drug alone): 66.6 ± 1.3 % inhib of Fsk
- pEC50 ± SEM [2, 10]: 8.39 ± 0.21
- cAMP response in the cell line expressing only CB1 [3]: without showing activity

Structure (SMILES): CCCCCc1cc(O)c2c(c1)OC(C)(C)[C@@H]1CCC(C)=C[C@@H]21 [THC, Δ^9-tetrahydrocannabinol]
- Effect on response rates compared to vehicle [1]: neither cannabinoid (alone or in combination with pFPP) significantly affected response rates
- THC ED50 (95% confidence limits), Alone ([1]; female mice, i.p., trained to discriminate 5.6 mg/kg THC from vehicle): 1.46 mg/kg (0.62-3.40)

Structure (SMILES): Fc1ccc(N2CCNCC2)cc1 [pFPP, para-fluorophenylpiperazine]
- Cannabimimetic (THC-like discriminative stimulus) effects ([1]; 3 mg/kg pFPP by itself): did not produce cannabimimetic effects by itself
- Effect on potency of THC-like discriminative stimulus effects of THC or AMB-FUBINACA ([1]; 3 mg/kg pFPP co-administered): nor did it alter the potency
- Effect on response rates ([1]; 10 mg/kg pFPP alone, probe tests, data not shown): substantial decreases in response rates
- Antagonism of cAMP inhibition by 8OH-DPAT [5]: not observed to have any antagonist effect
- pEC50 ± SEM [2, 10]: ~5.20 ± 0.18^$
- Antagonism of cAMP inhibition by 8OH-DPAT [6]: not observed to have any antagonist effect
- cAMP response in the cell line expressing only CB1 [3]: no pFPP response was observed
- Effect on AMB-FUBINACA metabolism [7]: not altered by any concentration of pFPP
- Effect on AMB-FUBINACA metabolism [8]: not altered by any concentration of pFPP
- previously reported affinity (pKi) [9]: 6.52
- Effect on heart rate in comparison to vehicle ([4]; 10 mg/kg pFPP alone, i.p.): only early and transient decreases
- Effect on respiratory minute volume across the post-injection session ([4]; 10 mg/kg pFPP alone, i.p.): significant decrease
- Effect on temperature in comparison to vehicle ([4]; 10 mg/kg pFPP alone, i.p.): only early and transient decreases
- Effect of co-administration on duration of AMB-FUBINACA heart rate decreases ([4]; 10 mg/kg pFPP with 0.3 or 1 mg/kg AMB-FUBINACA): shortened the duration

Source: PMC10020421 (Pharmacology, biochemistry, and behavior, 2023)
